Assay results as given in patent US10238657B2, “Heterocyclic compounds for treating psoriasis” (JS INNOPHARM (SHANGHAI LTD.), priority 2015, dated 2019).
Converted amounts (≈) assume the structure as drawn.

Key:
mouse tail epidermis = assay: Effect on mouse tail epidermis (granular layer of tail scales); format: in vivo; conditions: 100 μl once daily, 7 days, female mice, n = 10
Description: 70 female mice were randomly divided into several groups: (a) saline control group, saline was used in each administration; (b) blank cream group, blank cream was used in each administration; (c) calcipotriol control group, calcipotriol in cream (5% w/w) was used in each administration; (d) four testing groups, Compound No 5 in cream at 0.5%, 1%, 2%, and 4% (w/w), respectively, was used in each administration. 100 μl of corresponding treatment was applied to the same position on the tail of the mice once daily for seven successive days. The mice were sacrificed 1 hour after the last application. The treated skin parts were taken for pathological examination, and the tail scales of each mouse was assessed under a microscope. The number of scales having a granular layer in every 100 scales was counted, and the result was expressed as percentage.

[1] = system: chick chorioallantoic membrane; assay: Chick chorioallantoic membrane (CAM) angiogenesis model; format: in vivo, chicken; conditions: 100 μg/egg
Description: Fresh eggs were incubated for 6 successive days under 37° C. and 50% humidity. On the 6th day, live eggs were identified and taken out for window-opening. First, the chorioallantoic membrane was located with illumination. Droplets of Compound No. […] After air dry, the filter paper was placed on the chorioallantoic membrane gently without contacting big vessels. The window was sealed with a transparent adhesive tape. The eggs were incubated for 48 hours continuously. The transparent adhesive tape was then uncovered. The window was enlarged and photos were taken under a dissecting microscope (FIGS. 2 A-B). New vessels were counted based on the number of blood vessel branch points in each photo. Inhibitory rate=100−[(number of new blood vessels in treatment group at 24 h)/(number of new blood vessels in treatment group at 0 h)]/[(number of blood vessels in negative control group at 24 h)/(number of blood vessels in negative control group at 0 h)]×100%.

guinea pig ear epidermis = assay: Propranolole hydrochloride-induced psoriasis in guinea pig model; format: in vivo; conditions: 200 μl on both ears twice daily, 7 days
Description: Except for those in Saline control group, guinea pigs were treated with propranolole hydrochloride cream (5% w/w, 200 μl) uniformly applied on the back of both ears twice daily for four successive weeks. After four weeks, the […] were divided into several groups, namely, blank cream group, calcipotriol group, and four testing cream groups with Compound 5 at concentration of 0.5%, 1%, 2%, and 4% (w/w)), respectively. The guinea pigs in Saline control group were treated with saline on the back of both ears; the guinea pigs in other groups were treated with corresponding cream on the back of both ears (200 μl) twice daily for 7 successive days. The guinea pigs were examined during the experiment period and sacrificed 1 hour after the last dosing.

[2] = system: mouse vaginal epidermal cells; assay: Effect on mitosis of mouse vaginal epidermal cells; format: in vivo; conditions: 25 μl intravaginal once daily, 3 days, estradiol-treated mice, n = 6
Description: Except for the saline control group, sexually mature female mice were injected with estradiol subcutaneously at a dosage of 35 mg/kg for 3 successive days. On the fourth day, in-estrus mice were selected with vaginal smear. The mice were randomly divided into several groups: (a) saline control group, saline was used in each administration; (b) blank cream group, blank cream was used in each administration; (c) calcipotriol control group, calcipotriol in cream (5% w/w) was used in each administration; (d) four testing groups, Compound No 5 in cream at concentration of 0.5%, 1%, 2%, and 4% (w/w), respectively, was used in each application. 25 μl corresponding treatment was injected into the vagina of the mice once daily for 3 successive days. Colchicine (15 mg/Kg) was intraperitoneally injected 2 hours after the last dosing. The mice were sacrificed 6 hours after the injection of colchicine. The vaginal tissue was taken out for pathological examination. The number of mitosis in one hundred basal cells was counted, which was named as the mitotic index.

HaCaT cells [3] = assay: In-vitro screening with MTT method, inhibition of proliferation of HaCaT cells; format: cell-based, human; conditions: Homo sapiens, HaCaT, about 48 hours incubation
Description: Compound No. 5 was dissolved in DMSO, and gradiently diluted with PBS to prepare solutions at concentration of 1000 μg/ml, 100 μg/ml, 10 μg/ml, 1 μg/ml, 0.1 μg/ml, and 0.01 μg/ml, respectively. Cis-platinum (CDDP) was used as positive control, and sample solutions were prepared with the same method. The sample solutions were added into a 96-well plate placed with the growth phase human immortalized keratinocyte (HaCaT) cells (Pharmacology Laboratory of Shanghai Institute of Pharmaceutical Industry), and were incubated for about 48 hours. The cell relative survival rate was determined by the MTT method, and calculated according to the following formula based on the light absorption value at […]. Cell relative survival rate=(Light absorption value of sample treatment group—background light absorption value)/(Light absorption value of DMSO treatment group—background light absorption value).

HaCaT cells [4] = assay: Morphological examination of the effect on HaCaT cell differentiation; format: cell-based, human
Description: HaCaT cells were cultured in DMEM culture medium containing 10% FBS under 37° C. and 5% CO2 concentration. When reaching 80% of the culture bottle area and after digestion by 0.25% trypsin, the cells were adjusted to a concentration of 4×10^4/ml and moved to a 6-well plate respectively (containing sterilized slide). Compound solutions were added. The cells were applied to the corresponding wells, and a blank control group (saline) was set. Both the sample groups and the control group were placed in a cell incubator at 37° C. Immumohistochemical staining was conducted after incubation at 48 h.
The imagine in FIG. 1A is dark brown, indicating large amount of keratin is present. […] Compound No. 5 underwent cornification (positive result).

Cc1cnc(Nc2ccc(F)cc2Cl)nc1-c1cc2n(c1)CCN([C@H](CO)c1cccc(Cl)c1)C2=O [Compound 5, (S)-7-(2-((2-chloro-4-fluorophenyl)amino)-5-methylpyrimidin-4-yl)-2-(1-(3-chlorophenyl)-2-hydroxyethyl)-3,4-dihydropyrrolo[1,2-a]pyrazin-1(2H)-one]
Scales quantity in granular layer * 100% (mouse tail epidermis; cream 0.5% (w/w)): 42.40 ± 3.03 % | Scales quantity in granular layer * 100% (mouse tail epidermis; cream 1% (w/w)): 47.00 ± 5.29 % | Scales quantity in granular layer * 100% (mouse tail epidermis; cream 2% (w/w)): 50.80 ± 7.50 % | Scales quantity in granular layer * 100% (mouse tail epidermis; cream 4% (w/w)): 58.80 ± 7.64 % | Number of new blood vessels 0 h ([1]; 0 h, n = 3): 18.83 ± 5.60 | Number of new blood vessels 48 h ([1]; 48 h, n = 3): 16.00 ± 5.73 | Inhibitory rate (%) ([1]; 48 h, versus PBS group): 125.76% | Epidermal thickness (μm) (guinea pig ear epidermis; cream 0.5% w/w): 190.31 ± 17.89 μm | Epidermal thickness (μm) (guinea pig ear epidermis; cream 1% w/w): 180.74 ± 11.05 μm | Epidermal thickness (μm) (guinea pig ear epidermis; cream 2% w/w): 156.59 ± 13.25 μm | Epidermal thickness (μm) (guinea pig ear epidermis; cream 4% w/w): 128.96 ± 13.61 μm | Mitotic cell number/total cell number (%) ([2]; cream 0.5% (w/w)): 18.33 ± 1.86 % | Mitotic cell number/total cell number (%) ([2]; cream 1% (w/w)): 15.00 ± 3.35 % | Mitotic cell number/total cell number (%) ([2]; cream 2% (w/w)): 14.83 ± 2.48 % | Mitotic cell number/total cell number (%) ([2]; cream 4% (w/w)): 14.50 ± 3.62 % | IC50 (HaCaT cells [3]): 544 µg/mL (≈ 1030 µM) | Differentiation of HaCaT cells (keratin, cornification) (HaCaT cells [4]; 100 μg/ml, 48 h, inverted microscope x200, FIG. 1A): induced differentiation of HaCaT cells | Test Results, effect on HaCat cell differentiation (HaCaT cells [4]; 48 h incubation, immunohistochemical staining): Positive
